Reference: US5593984A, “Cephalosporin derivatives” (Yuhan Corporation, priority 1992, dated 1997)
≈ marks a conversion by molar mass, not a printed value.

How the values were obtained:
Assay type in all cases: cell-based
B. subtilis ATCC 6633 = test: MIC by agar dilution, B. subtilis ATCC 6633; details: Bacillus subtilis, ATCC6633, 17 h; B. subtilis ATCC 6633; agar dilution, Mueller-Hinton agar; read-out: Minimal Inhibitory Concentration (MIC)
In short: (§1)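 Agar dilution MIC: Mueller-Hinton agar, 2-fold compound series, inoculum 10^6 CFU/ml, 35°-37° C., 17±1 h.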

Staph. aureus ATCC 6538P = test: MIC by agar dilution, Staph. aureus ATCC 6538P; details: Staphylococcus aureus, ATCC6538P, 17 h; Staph. aureus ATCC 6538P; agar dilution, Mueller-Hinton agar; read-out: Minimal Inhibitory Concentration (MIC)
In short: as §1

Staph. aureus Smith = test: MIC by agar dilution, Staph. aureus Smith; details: Staphylococcus aureus, 17 h, Mueller-Hinton agar, read-out: Minimal Inhibitory Concentration (MIC)
In short: as §1

Staph. aureus C-57 = test: MIC by agar dilution, Staph. aureus C-57; details: Staphylococcus aureus, C57, 17 h, Mueller-Hinton agar, read-out: Minimal Inhibitory Concentration (MIC)
In short: as §1

Staph. aureus C-5113 = test: MIC by agar dilution, Staph. aureus C-5113; details: Staphylococcus aureus, C5113, 17 h, Mueller-Hinton agar, read-out: Minimal Inhibitory Concentration (MIC)
In short: as §1

Staph. aureus C-5216 = test: MIC by agar dilution, Staph. aureus C-5216; details: Staphylococcus aureus, C5216, 17 h, Mueller-Hinton agar, read-out: Minimal Inhibitory Concentration (MIC)
In short: as §1

[1] = test system: S. epidermidis ATCC 12228; test: MIC by agar dilution, S. epidermidis ATCC 12228; details: Staphylococcus epidermidis, ATCC12228, 17 h; S. epidermidis ATCC 12228; agar dilution, Mueller-Hinton agar; read-out: Minimal Inhibitory Concentration (MIC)
In short: as §1

Ent. aerogenes IFO 12979 = test: MIC by agar dilution, Ent. aerogenes IFO 12979; details: Klebsiella aerogenes, IFO12979, 17 h, Mueller-Hinton agar, read-out: Minimal Inhibitory Concentration (MIC)
In short: as §1

Ent. cloacae IFO 13535 = test: MIC by agar dilution, Ent. cloacae IFO 13535; details: Enterobacter cloacae, IFO13535, 17 h; Ent. cloacae IFO 13535; agar dilution, Mueller-Hinton agar; read-out: Minimal Inhibitory Concentration (MIC)
In short: as §1

E. coli NIHJ JC-2 = test: MIC by agar dilution, E. coli NIHJ JC-2; details: Escherichia coli, NIHJJC2, 17 h; E. coli NIHJ JC-2; agar dilution, Mueller-Hinton agar; read-out: Minimal Inhibitory Concentration (MIC)
In short: as §1

E. coli No. 29 = test: MIC by agar dilution, E. coli No. 29; details: Escherichia coli, 17 h; E. coli No. 29; agar dilution, Mueller-Hinton agar; read-out: Minimal Inhibitory Concentration (MIC)
In short: as §1

E. coli DY-1 = test: MIC by agar dilution, E. coli DY-1; details: Escherichia coli, DY1, 17 h; E. coli DY-1; agar dilution, Mueller-Hinton agar; read-out: Minimal Inhibitory Concentration (MIC)
In short: as §1

K. pneumoniae NCTC 9632 = test: MIC by agar dilution, K. pneumoniae NCTC 9632; details: Klebsiella pneumoniae, NCTC9632, 17 h; K. pneumoniae NCTC 9632; agar dilution, Mueller-Hinton agar; read-out: Minimal Inhibitory Concentration (MIC)
In short: as §1

M. morganii DY-1 = test: MIC by agar dilution, M. morganii DY-1; details: Morganella morganii, DY1, 17 h; M. morganii DY-1; agar dilution, Mueller-Hinton agar; read-out: Minimal Inhibitory Concentration (MIC)
In short: as §1

[2] = test system: Ps. aeruginosa ATCC 10145; test: MIC by agar dilution, Ps. aeruginosa ATCC 10145; details: Pseudomonas aeruginosa, ATCC10145, 17 h, Mueller-Hinton agar, read-out: Minimal Inhibitory Concentration (MIC)
In short: as §1

[3] = test system: Ps. aeruginosa NCTC 10490; test: MIC by agar dilution, Ps. aeruginosa NCTC 10490; details: Pseudomonas aeruginosa, NCTC10490, 17 h, Mueller-Hinton agar, read-out: Minimal Inhibitory Concentration (MIC)
In short: as §1

Ps. aeruginosa DY-2 = test: MIC by agar dilution, Ps. aeruginosa DY-2; details: Pseudomonas aeruginosa, DY2, 17 h; Ps. aeruginosa DY-2; agar dilution, Mueller-Hinton agar; read-out: Minimal Inhibitory Concentration (MIC)
In short: as §1

P. vulgaris NCTC 8313 = test: MIC by agar dilution, P. vulgaris NCTC 8313; details: Proteus vulgaris, NCTC8313, 17 h; P. vulgaris NCTC 8313; agar dilution, Mueller-Hinton agar; read-out: Minimal Inhibitory Concentration (MIC)
In short: as §1

Prov. stuartii IFO 12930 = test: MIC by agar dilution, Prov. stuartii IFO 12930; details: Providencia stuartii, IFO12930, 17 h, Mueller-Hinton agar, read-out: Minimal Inhibitory Concentration (MIC)
In short: as §1

[4] = test system: Ser. marcescens IFO 12648; test: MIC by agar dilution, Ser. marcescens IFO 12648; details: Serratia marcescens, IFO12648, 17 h; Ser. marcescens IFO 12648; agar dilution, Mueller-Hinton agar; read-out: Minimal Inhibitory Concentration (MIC)
In short: as §1

CO/N=C(\C(=O)N[C@@H]1C(=O)N2C(C(=O)[O-])=C(C[n+]3ccn4c(SCCO)ccc4c3)CS[C@H]12)c1nc(N)sc1Cl [Ex. 52, 7-β-[(Z)-2-(2-amino-5-chlorothiazol-4-yl)-2-methoxyiminoacetamido]-3-[6-(2-hydroxyethylthio)pyrrolo[1,2-a]-pyrazinium-2-yl]methyl-3-cephem-4-carboxylate]
MIC (B. subtilis ATCC 6633): 0.1 µg/mL (≈ 0.16 µM) | MIC (Staph. aureus ATCC 6538P): 0.2 µg/mL (≈ 0.32 µM) | MIC (Staph. aureus Smith): 1.56 µg/mL (≈ 2.5 µM) | MIC (Staph. aureus C-57): 6.25 µg/mL (≈ 10 µM) | MIC (Staph. aureus C-5113): 1.56 µg/mL (≈ 2.5 µM) | MIC (Staph. aureus C-5216): 0.78 µg/mL (≈ 1.25 µM) | MIC [1]: 0.1 µg/mL (≈ 0.16 µM) | MIC (Ent. aerogenes IFO 12979): 0.1 µg/mL (≈ 0.16 µM) | MIC (Ent. cloacae IFO 13535): 0.78 µg/mL (≈ 1.25 µM) | MIC (E. coli NIHJ JC-2): 0.2 µg/mL (≈ 0.32 µM) | MIC (E. coli No. 29): 0.1 µg/mL (≈ 0.16 µM) | MIC (E. coli DY-1): 0.025 µg/mL (≈ 0.0401 µM) | MIC (K. pneumoniae NCTC 9632): 0.1 µg/mL (≈ 0.16 µM) | MIC (M. morganii DY-1): 0.2 µg/mL (≈ 0.32 µM) | MIC [2]: 1.56 µg/mL (≈ 2.5 µM) | MIC [3]: 1.56 µg/mL (≈ 2.5 µM) | MIC (Ps. aeruginosa DY-2): 12.5 µg/mL (≈ 20 µM) | MIC (P. vulgaris NCTC 8313): 0.012 µg/mL (≈ 0.0192 µM) | MIC (Prov. stuartii IFO 12930): 0.025 µg/mL (≈ 0.0401 µM) | MIC [4]: 0.2 µg/mL (≈ 0.32 µM)

CO/N=C(\C(=O)N[C@@H]1C(=O)N2C(C(=O)[O-])=C(C[n+]3ccn4cccc4c3)CS[C@H]12)c1nc(N)sc1Cl [Ex. 47, 7-β-[(Z)-2-(2-amino-5-chlorothiazol-4-yl)-2-methoxyiminoacetamido]-3-(pyrrolo[1,2-a]pyrazinium-2-yl)methyl-3-cephem-4-carboxylate]
MIC (B. subtilis ATCC 6633): 0.025 µg/mL (≈ 0.0456 µM) | MIC (Staph. aureus ATCC 6538P): 0.05 µg/mL (≈ 0.0912 µM) | MIC (Staph. aureus Smith): 0.2 µg/mL (≈ 0.365 µM) | MIC (Staph. aureus C-57): 1.56 µg/mL (≈ 2.85 µM) | MIC (Staph. aureus C-5113): 0.2 µg/mL (≈ 0.365 µM) | MIC (Staph. aureus C-5216): 0.2 µg/mL (≈ 0.365 µM) | MIC [1]: 0.025 µg/mL (≈ 0.0456 µM) | MIC (Ent. aerogenes IFO 12979): 0.012 µg/mL (≈ 0.0219 µM) | MIC (Ent. cloacae IFO 13535): 0.39 µg/mL (≈ 0.712 µM) | MIC (E. coli NIHJ JC-2): 0.1 µg/mL (≈ 0.182 µM) | MIC (E. coli No. 29): 0.05 µg/mL (≈ 0.0912 µM) | MIC (E. coli DY-1): 0.012 µg/mL (≈ 0.0219 µM) | MIC (K. pneumoniae NCTC 9632): 0.05 µg/mL (≈ 0.0912 µM) | MIC (M. morganii DY-1): 0.05 µg/mL (≈ 0.0912 µM) | MIC [2]: 0.78 µg/mL (≈ 1.42 µM) | MIC [3]: 0.05 µg/mL (≈ 0.0912 µM) | MIC (Ps. aeruginosa DY-2): 3.13 µg/mL (≈ 5.71 µM) | MIC (P. vulgaris NCTC 8313): ≤ 0.006 µg/mL | MIC (Prov. stuartii IFO 12930): 0.025 µg/mL (≈ 0.0456 µM) | MIC [4]: 0.1 µg/mL (≈ 0.182 µM)

CCON=C(C(=O)NC1C(=O)N2C(C(=O)[O-])=C(C[n+]3ccn4c(C=O)ccc4c3)CSC12)c1csc(N)n1 (stereo not drawn) [Ex. 26, 7-β-[(Z)-2-(2-aminothiazol-4-yl)2-ethoxyiminoacetamido]-3-(6-formylpyrrolo[1,2-a]pyrazinium-2-yl)methyl-3-cephem-4-carboxylate]
MIC (B. subtilis ATCC 6633): 0.39 µg/mL (≈ 0.702 µM) | MIC (Staph. aureus ATCC 6538P): 1.56 µg/mL (≈ 2.81 µM) | MIC (Staph. aureus Smith): 3.13 µg/mL (≈ 5.63 µM) | MIC (Staph. aureus C-57): 100 µg/mL (≈ 180 µM) | MIC (Staph. aureus C-5113): 3.13 µg/mL (≈ 5.63 µM) | MIC (Staph. aureus C-5216): 3.13 µg/mL (≈ 5.63 µM) | MIC [1]: 0.1 µg/mL (≈ 0.18 µM) | MIC (Ent. aerogenes IFO 12979): 0.05 µg/mL (≈ 0.09 µM) | MIC (Ent. cloacae IFO 13535): 3.13 µg/mL (≈ 5.63 µM) | MIC (E. coli NIHJ JC-2): 0.1 µg/mL (≈ 0.18 µM) | MIC (E. coli No. 29): 0.05 µg/mL (≈ 0.09 µM) | MIC (E. coli DY-1): 0.05 µg/mL (≈ 0.09 µM) | MIC (K. pneumoniae NCTC 9632): 0.2 µg/mL (≈ 0.36 µM) | MIC (M. morganii DY-1): 0.2 µg/mL (≈ 0.36 µM) | MIC [2]: 6.25 µg/mL (≈ 11.2 µM) | MIC [3]: 1.56 µg/mL (≈ 2.81 µM) | MIC (Ps. aeruginosa DY-2): 12.5 µg/mL (≈ 22.5 µM) | MIC (P. vulgaris NCTC 8313): 0.025 µg/mL (≈ 0.045 µM) | MIC (Prov. stuartii IFO 12930): 0.05 µg/mL (≈ 0.09 µM) | MIC [4]: 0.1 µg/mL (≈ 0.18 µM)

CO/N=C(\C(=O)N[C@@H]1C(=O)N2C(C(=O)[O-])=C(C[n+]3ccn4c(CO)ccc4c3C)CS[C@H]12)c1csc(N)n1 [Ex. 46, 7-β-[(Z)-2-(2-aminothiazol-4-yl)-2-methoxyiminoacetamido]-3-(6-hydroxymethyl-1-methylpyrrolo[1,2-a]pyrazinium-2-yl)methyl-3-cephem-4-carboxylate]
MIC (B. subtilis ATCC 6633): 0.39 µg/mL (≈ 0.699 µM) | MIC (Staph. aureus ATCC 6538P): 0.2 µg/mL (≈ 0.359 µM) | MIC (Staph. aureus Smith): 0.78 µg/mL (≈ 1.4 µM) | MIC (Staph. aureus C-57): 50 µg/mL (≈ 89.7 µM) | MIC (Staph. aureus C-5113): 1.56 µg/mL (≈ 2.8 µM) | MIC (Staph. aureus C-5216): 1.56 µg/mL (≈ 2.8 µM) | MIC [1]: 0.1 µg/mL (≈ 0.179 µM) | MIC (Ent. aerogenes IFO 12979): 0.05 µg/mL (≈ 0.0897 µM) | MIC (Ent. cloacae IFO 13535): 0.1 µg/mL (≈ 0.179 µM) | MIC (E. coli NIHJ JC-2): 0.05 µg/mL (≈ 0.0897 µM) | MIC (E. coli No. 29): 0.025 µg/mL (≈ 0.0448 µM) | MIC (E. coli DY-1): 0.025 µg/mL (≈ 0.0448 µM) | MIC (K. pneumoniae NCTC 9632): 0.05 µg/mL (≈ 0.0897 µM) | MIC (M. morganii DY-1): 0.1 µg/mL (≈ 0.179 µM) | MIC [2]: 3.13 µg/mL (≈ 5.61 µM) | MIC [3]: 0.78 µg/mL (≈ 1.4 µM) | MIC (Ps. aeruginosa DY-2): 0.25 µg/mL (≈ 0.448 µM) | MIC (P. vulgaris NCTC 8313): 0.05 µg/mL (≈ 0.0897 µM) | MIC (Prov. stuartii IFO 12930): 0.012 µg/mL (≈ 0.0215 µM) | MIC [4]: 0.05 µg/mL (≈ 0.0897 µM)
